Non-standard residues stand in square brackets, D forms with d. Residues, ends and D or L forms follow the SMILES beside them. *: point of attachment. Boc = CC(C)(C)OC(=O)*; Aib = CC(C)(N)C(=O)O; Bn = c1ccc(C*)cc1
Biological target: γ-secretase (Homo sapiens, UniProt P49768)
Assay: cell-free γ-secretase assay using detergent-solubilized membranes from HeLa cells and a recombinant APP-based substrate
Assay type: biochemical
Design: detergent-solubilized membranes from HeLa cells; endogenous in cells; host or cells: HeLa cells (detergent-solubilized membranes)
Conditions: 50% inhibition of Aβ40 production; at least three independent experiments; read-out: Cell-free Assay IC50
Procedure: Compounds were tested in a γ-secretase assay using detergent-solubilized membranes from HeLa cells and a recombinant APP-based substrate (Table 2, 18). […] Moreover, the γ-secretase inhibition appears to show dependence on length.

| IC50 [nM] | SMILES |
| --- | --- |
| 25 ± 3 | CC[C@@H](C)[C@@H](NC(=O)[C@H](NC(=O)[C@H](NC(=O)OC(C)(C)C)C(C)C)C(C)C)C(=O)NC(C)(C)C(=O)N[C@@H](C(=O)N[C@@H](C(=O)NC(C)(C)C(=O)N[C@@H](C(=O)N[C@@H](C(=O)NC(C)(C)C(=O)OC)[C@H](C)CC)C(C)C)C(C)C)[C@H](C)OCc1ccccc1 [SEQ ID NO:15 D-peptide, Boc-Val-Val-Ile-Aib-Thr(OBz)-Val-Aib-Val-Ile-Aib-OMe] (Boc-[dV][dV][dI][Aib][dT](Bn)[dV][Aib][dV][dI][Aib]-OMe) |
| 10000 | CC[C@H](C)[C@H](NC(=O)[C@@H](NC(=O)[C@@H](NC(=O)OC(C)(C)C)C(C)C)C(C)C)C(=O)NC(C)(C)C(=O)N[C@H](C(=O)N[C@H](C(=O)NC(C)(C)C(=O)N[C@H](C(=O)N[C@H](C(=O)NC(C)(C)C(=O)OC)[C@@H](C)CC)C(C)C)C(C)C)[C@@H](C)OCc1ccccc1 [SEQ ID NO:15 L-peptide, Boc-Val-Val-Ile-Aib-Thr(OBz)-Val-Aib-Val-Ile-Aib-OMe] (Boc-VVI[Aib]T(Bn)V[Aib]VI[Aib]-OMe) |
| 28 ± 19 | CC[C@@H](C)[C@@H](NC(=O)[C@H](NC(=O)[C@H](NC(=O)C(C)(C)NC(=O)OC(C)(C)C)C(C)C)C(C)C)C(=O)NC(C)(C)C(=O)N[C@@H](C(=O)N[C@@H](C(=O)NC(C)(C)C(=O)N[C@@H](C(=O)N[C@@H](C(=O)NC(C)(C)C(=O)OC)[C@H](C)CC)C(C)C)C(C)C)[C@H](C)OCc1ccccc1 [SEQ ID NO:16 D-peptide, Boc-Aib-Val-Val-Ile-Aib-Thr(OBz)-Val-Aib-Val-Ile-Aib-OMe] (Boc-[Aib][dV][dV][dI][Aib][dT](Bn)[dV][Aib][dV][dI][Aib]-OMe) |
| 3100 | CC[C@H](C)[C@H](NC(=O)[C@@H](NC(=O)[C@@H](NC(=O)C(C)(C)NC(=O)OC(C)(C)C)C(C)C)C(C)C)C(=O)NC(C)(C)C(=O)N[C@H](C(=O)N[C@H](C(=O)NC(C)(C)C(=O)N[C@H](C(=O)N[C@H](C(=O)NC(C)(C)C(=O)OC)[C@@H](C)CC)C(C)C)C(C)C)[C@@H](C)OCc1ccccc1 [SEQ ID NO:16 L-peptide, Boc-Aib-Val-Val-Ile-Aib-Thr(OBz)-Val-Aib-Val-Ile-Aib-OMe] (Boc-[Aib]VVI[Aib]T(Bn)V[Aib]VI[Aib]-OMe) |
| 12 ± 4 | CC[C@@H](C)[C@@H](NC(=O)[C@H](NC(=O)[C@H](NC(=O)C(C)(C)NC(=O)CNC(=O)OC(C)(C)C)C(C)C)C(C)C)C(=O)NC(C)(C)C(=O)N[C@@H](C(=O)N[C@@H](C(=O)NC(C)(C)C(=O)N[C@@H](C(=O)N[C@@H](C(=O)NC(C)(C)C(=O)OC)[C@H](C)CC)C(C)C)C(C)C)[C@H](C)OCc1ccccc1 [SEQ ID NO:17 D-peptide, Boc-Gly-Aib-Val-Val-Ile-Aib-Thr(OBz)-Val-Aib-Val-Ile-Aib-OMe] (Boc-G[Aib][dV][dV][dI][Aib][dT](Bn)[dV][Aib][dV][dI][Aib]-OMe) |
| 360 | CC[C@H](C)[C@H](NC(=O)[C@@H](NC(=O)[C@@H](NC(=O)C(C)(C)NC(=O)CNC(=O)OC(C)(C)C)C(C)C)C(C)C)C(=O)NC(C)(C)C(=O)N[C@H](C(=O)N[C@H](C(=O)NC(C)(C)C(=O)N[C@H](C(=O)N[C@H](C(=O)NC(C)(C)C(=O)OC)[C@@H](C)CC)C(C)C)C(C)C)[C@@H](C)OCc1ccccc1 [SEQ ID NO:17 L-peptide, Boc-Gly-Aib-Val-Val-Ile-Aib-Thr(OBz)-Val-Aib-Val-Ile-Aib-OMe] (Boc-G[Aib]VVI[Aib]T(Bn)V[Aib]VI[Aib]-OMe) |
| 780 | CC[C@H](C)[C@H](NC(=O)[C@@H](NC(=O)[C@@H](NC(=O)C(C)(C)NC(=O)CNC(=O)[C@@H](NC(=O)OC(C)(C)C)C(C)C)C(C)C)C(C)C)C(=O)NC(C)(C)C(=O)N[C@H](C(=O)N[C@H](C(=O)NC(C)(C)C(=O)N[C@H](C(=O)N[C@H](C(=O)NC(C)(C)C(=O)OC)[C@@H](C)CC)C(C)C)C(C)C)[C@@H](C)OCc1ccccc1 [SEQ ID NO:18 L-peptide, Boc-Val-Gly-Aib-Val-Val-Ile-Aib-Thr(OBz)-Val-Aib-Val-Ile-Aib-OMe] (Boc-VG[Aib]VVI[Aib]T(Bn)V[Aib]VI[Aib]-OMe) |

Second part, the molecule before the results:

| SMILES | IC50 [nM] |
| --- | --- |
| CC[C@@H](C)[C@@H](NC(=O)[C@H](NC(=O)[C@H](NC(=O)C(C)(C)NC(=O)CNC(=O)[C@H](NC(=O)C(C)(C)NC(=O)OC(C)(C)C)C(C)C)C(C)C)C(C)C)C(=O)NC(C)(C)C(=O)N[C@@H](C(=O)N[C@@H](C(=O)NC(C)(C)C(=O)N[C@@H](C(=O)N[C@@H](C(=O)NC(C)(C)C(=O)OC)[C@H](C)CC)C(C)C)C(C)C)[C@H](C)OCc1ccccc1 [SEQ ID NO:19 D-peptide, Boc-Aib-Val-Gly-Aib-Val-Val-Ile-Aib-Thr(OBz)-Val-Aib-Val-Ile-Aib-OMe] (Boc-[Aib][dV]G[Aib][dV][dV][dI][Aib][dT](Bn)[dV][Aib][dV][dI][Aib]-OMe) | 14 ± 10 |
| CC[C@H](C)[C@H](NC(=O)[C@@H](NC(=O)[C@@H](NC(=O)C(C)(C)NC(=O)CNC(=O)[C@@H](NC(=O)C(C)(C)NC(=O)OC(C)(C)C)C(C)C)C(C)C)C(C)C)C(=O)NC(C)(C)C(=O)N[C@H](C(=O)N[C@H](C(=O)NC(C)(C)C(=O)N[C@H](C(=O)N[C@H](C(=O)NC(C)(C)C(=O)OC)[C@@H](C)CC)C(C)C)C(C)C)[C@@H](C)OCc1ccccc1 [SEQ ID NO:19 L-peptide, Boc-Aib-Val-Gly-Aib-Val-Val-Ile-Aib-Thr(OBz)-Val-Aib-Val-Ile-Aib-OMe] (Boc-[Aib]VG[Aib]VVI[Aib]T(Bn)V[Aib]VI[Aib]-OMe) | 910 ± 170 |
| CC[C@@H](C)[C@@H](NC(=O)[C@H](NC(=O)[C@H](NC(=O)C(C)(C)NC(=O)CNC(=O)[C@H](NC(=O)C(C)(C)NC(=O)[C@@H](CC(C)C)NC(=O)OC(C)(C)C)C(C)C)C(C)C)C(C)C)C(=O)NC(C)(C)C(=O)N[C@@H](C(=O)N[C@@H](C(=O)NC(C)(C)C(=O)N[C@@H](C(=O)N[C@@H](C(=O)NC(C)(C)C(=O)OC)[C@H](C)CC)C(C)C)C(C)C)[C@H](C)OCc1ccccc1 [SEQ ID NO:20 D-peptide, Boc-Leu-Aib-Val-Gly-Aib-Val-Val-Ile-Aib-Thr(OBz)-Val-Aib-Val-Ile-Aib-OMe] (Boc-[dL][Aib][dV]G[Aib][dV][dV][dI][Aib][dT](Bn)[dV][Aib][dV][dI][Aib]-OMe) | 16 ± 7 |
| CC[C@H](C)[C@H](NC(=O)[C@@H](NC(=O)[C@@H](NC(=O)C(C)(C)NC(=O)CNC(=O)[C@@H](NC(=O)C(C)(C)NC(=O)[C@H](CC(C)C)NC(=O)OC(C)(C)C)C(C)C)C(C)C)C(C)C)C(=O)NC(C)(C)C(=O)N[C@H](C(=O)N[C@H](C(=O)NC(C)(C)C(=O)N[C@H](C(=O)N[C@H](C(=O)NC(C)(C)C(=O)OC)[C@@H](C)CC)C(C)C)C(C)C)[C@@H](C)OCc1ccccc1 [SEQ ID NO:20 L-peptide, Boc-Leu-Aib-Val-Gly-Aib-Val-Val-Ile-Aib-Thr(OBz)-Val-Aib-Val-Ile-Aib-OMe] (Boc-L[Aib]VG[Aib]VVI[Aib]T(Bn)V[Aib]VI[Aib]-OMe) | 4700 |

Same assay, conditions: L-series, cell-free assay

| increase in potency over the reference L-decapeptide having SEQ ID NO:10 [fold] | SMILES |
| --- | --- |
| ~100 | CC[C@H](C)[C@H](NC(=O)[C@@H](NC(=O)[C@@H](NC(=O)C(C)(C)NC(=O)CNC(=O)OC(C)(C)C)C(C)C)C(C)C)C(=O)NC(C)(C)C(=O)N[C@H](C(=O)N[C@H](C(=O)NC(C)(C)C(=O)N[C@H](C(=O)N[C@H](C(=O)NC(C)(C)C(=O)OC)[C@@H](C)CC)C(C)C)C(C)C)[C@@H](C)OCc1ccccc1 [SEQ ID NO:17 L-peptide, Boc-Gly-Aib-Val-Val-Ile-Aib-Thr(OBz)-Val-Aib-Val-Ile-Aib-OMe] (Boc-G[Aib]VVI[Aib]T(Bn)V[Aib]VI[Aib]-OMe) |
| ~40 | CC[C@H](C)[C@H](NC(=O)[C@@H](NC(=O)[C@@H](NC(=O)C(C)(C)NC(=O)CNC(=O)[C@@H](NC(=O)OC(C)(C)C)C(C)C)C(C)C)C(C)C)C(=O)NC(C)(C)C(=O)N[C@H](C(=O)N[C@H](C(=O)NC(C)(C)C(=O)N[C@H](C(=O)N[C@H](C(=O)NC(C)(C)C(=O)OC)[C@@H](C)CC)C(C)C)C(C)C)[C@@H](C)OCc1ccccc1 [SEQ ID NO:18 L-peptide, Boc-Val-Gly-Aib-Val-Val-Ile-Aib-Thr(OBz)-Val-Aib-Val-Ile-Aib-OMe] (Boc-VG[Aib]VVI[Aib]T(Bn)V[Aib]VI[Aib]-OMe) |
